Among the data in US20220257774A1, “AROMATIC AMINE AR AHD BET TARGETING PROTEIN DEGRADATION CHIMERA COMPOUND AND USE” (HINOVA PHARMACEUTICALS INC., priority 2019, published 2022) are IC50 values, retold here.

One experiment deals with LNCaP/AR cells. The experiment in a line: Inhibition of the proliferation of LNCap/AR cells (CCK-8). In kind it is cell-based. The settings on record: 144 h; LNCaP/AR cells, 6 days culture, CCK-8; read-out: LNCap/AR IC50. Put shortly:
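LNCaP/AR cells (1000/well, RPMI1640 + 10% FBS) were treated for 6 days at 37 °C with 9-point 3-fold dilutions from 10 μM final, 0.1% DMSO, in duplicate. Viability was read by CCK-8 absorbance at 450 nm after 1 h, and IC50 came from a dose-response-inhibition fit.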
On to `Cc1ccc(-c2c(C)noc2C)cc1N(CCCCOCC(=O)N[C@H](C(=O)N1C[C@H](O)C[C@H]1C(=O)N[C@@H](C)c1ccc(-c2scnc2C)cc1)C(C)(C)C)c1ccc(-n2ccnc2)cc1` [Compound 85, (2S,4R)-1-((S)-2-(2-(4-((4-(1H-imidazol-1-yl)phenyl)(5-(3,5-dimethylisoxazol-4-yl)-2-methylphenyl)amino)butoxy)acetamido)-3,3-dimethylbutyryl)-4-hydroxy-N—((S)-1-(4-(4-methylthiazol-5-yl)phenyl)ethyl)pyrrolidine-2-carboxamide], for which the IC50 lay in the range of 101 to 500 nM.

As for `CC(=O)O[C@@H]1C[C@@H](C(=O)N[C@@H](C)c2ccc(-c3scnc3C)cc2)N(C(=O)[C@@H](NC(=O)COCCCCN(c2ccc(-n3ccnc3)cc2)c2cc(-c3c(C)noc3C)ccc2C)C(C)(C)C)C1` [Compound 86, (3R,5S)-1-((S)-2-(2-(4-((4-(1H-imidazol-1-yl)phenyl)(5-(3,5-dimethylisoxazol-4-yl)-2-methylphenyl)amino)butoxy)acetamido)-3,3-dimethylbutyryl)-5-((S)-1-(4-(4-methylthiazol-5-yl)phenyl)ethyl)carbamoyl)pyrrolidine-3-yl acetate], the IC50 fell in the range of 101 to 500 nM.

For the molecule `Cc1ccc(-c2c(C)noc2C)cc1N(CCCCCCCCOCC(=O)N[C@H](C(=O)N1C[C@H](O)C[C@H]1C(=O)N[C@@H](C)c1ccc(-c2scnc2C)cc1)C(C)(C)C)c1ccc(-n2ccnc2)cc1` [Compound 87, (2S,4R)-1-((S)-2-(2-((8-((4-(1H-imidazol-1-yl)phenyl)(5-(3,5-methylisoxazol-4-yl)-2-methylphenyl)amino)cetyl)oxy)acetylamino)-3,3-dimethylbutyryl)-4-hydroxy-N—((S)-1-(4-(4-methylthiazol-5-yl)phenyl)ethyl)pyrrolidinyl-2-formamide], the IC50 was in the range of 501 to 2000 nM.

With `CCCCCCCCC(CCCCCCCOCC(=O)N[C@H](C(=O)N1C[C@H](OC(C)=O)C[C@H]1C(=O)N[C@@H](C)c1ccc(-c2scnc2C)cc1)C(C)(C)C)N(c1ccc(-n2ccnc2)cc1)c1cc(-c2c(C)noc2C)ccc1C` (stereo partly drawn) [Compound 88, (3R,5S)-1-((S)-2-(2-((8-((4-(1H-imidazol-1-yl)phenyl)(5-(3,5-dimethylisoxazol-4-yl)-2-methylphenyl)amino)cetyl)oxy)acetylamino)-3,3-dimethylbutyryl)-5-(((S)-1-(4-(4-methylthiazol-5-yl)phenyl)ethyl)carbamoyl)pyrrolidine-3-yl acetate], the IC50 lay in the range of 501 to 2000 nM.

Consider `Cc1ccc(-c2c(C)noc2C)cc1N(CCCCCOCC(=O)N[C@H](C(=O)N1C[C@H](O)C[C@H]1C(=O)N[C@@H](C)c1ccc(-c2scnc2C)cc1)C(C)(C)C)c1ccc(-n2ccnn2)cc1` [Compound 89, (2S,4R)-1-((S)-2-(2-((5-((4-(1H-1,2,3-triazol-1-yl)phenyl)(5-(3,5-dimethylisoxazol-4-yl)-2-methylphenyl)amino)pentyl)oxy)acetylamino)-3,3-dimethylbutyryl)-4-hydroxy-N—((S)-1-(4-(4-methylthiazol-5-yl)phenyl)ethyl)-pyrrolidinyl-2-formamide], for which the IC50 is < 100 nM.

Consider `CC(=O)O[C@@H]1C[C@@H](C(=O)N[C@@H](C)c2ccc(-c3scnc3C)cc2)N(C(=O)[C@@H](NC(=O)COCCCCCN(c2ccc(-n3ccnn3)cc2)c2cc(-c3c(C)noc3C)ccc2C)C(C)(C)C)C1` [Compound 90, (3R,5S)-1-((S)-2-(2-((5-((4-(1H-1,2,3-triazol-1-yl)phenyl)(5-(3,5-dimethylisoxazol-4-yl)-2-methylphenyl)amino)pentyl)oxy)acetylamino)-3,3-dimethylbutyryl)-5-(((S)-1-(4-(4-methylthiazol-5-yl)phenyl)ethyl)aminoformyl)pyrrolidinyl-3-yl acetate], for which the IC50 was in the range of 101 to 500 nM.

On to `Cc1ccc(-c2c(C)noc2C)cc1N(CCCCCOCC(=O)N[C@H](C(=O)N1C[C@H](O)C[C@H]1C(=O)N[C@@H](C)c1ccc(-c2scnc2C)cc1)C(C)(C)C)c1ccc(-n2cncn2)cc1` [Compound 91, (2S,4R)-1-((S)-2-(2-((5-((4-(1H-1,2,4-triazol-1-yl)phenyl)(5-(3,5-dimethylisoxazol-4-yl)-2-methylphenyl)amino)pentyl)oxy)acetylamino)-3,3-dimethylbutyryl)-4-hydroxy-N—((S)-1-(4-(4-methylthiazol-5-yl)phenyl)ethyl)-pyrrolidinyl-2-formamide], for which the IC50 lay in the range of 101 to 500 nM.

`CC(=O)O[C@@H]1C[C@@H](C(=O)N[C@@H](C)c2ccc(-c3scnc3C)cc2)N(C(=O)[C@@H](NC(=O)COCCCCCN(c2ccc(-n3cncn3)cc2)c2cc(-c3c(C)noc3C)ccc2C)C(C)(C)C)C1` [Compound 92, (3R,5S)-1-((S)-2-(2-((5-((4-(1H-1,2,4-triazol-1-yl)phenyl)(5-(3,5-dimethylisoxazol-4-yl)-2-methylphenyl)amino)pentyl)oxy)acetylamino)-3,3-dimethylbutyryl)-5-(((S)-1-(4-(4-methylthiazol-5-yl)phenyl)ethyl)aminoformyl)pyrrolidinyl-3-yl acetate]: the IC50 was 101 to 500 nM.

Consider `Cc1ccc(-c2c(C)noc2C)cc1N(CCCCCOCC(=O)N[C@H](C(=O)N1C[C@H](O)C[C@H]1C(=O)N[C@@H](C)c1ccc(-c2scnc2C)cc1)C(C)(C)C)c1ccc(-n2cnnc2)cc1` [Compound 93, (2S,4R)-1-((S)-2-(2-((5-((4-(1H-1,3,4-triazol-1-yl)phenyl)(5-(3,5-dimethylisoxazol-4-yl)-2-methylphenyl)amino)pentyl)oxy)acetylamino)-3,3-dimethylbutyryl)-4-hydroxy-N—((S)-1-(4-(4-methylthiazol-5-yl)phenyl)ethyl)-pyrrolidinyl-2-formamide], for which the IC50 lay in the range of 101 to 500 nM.

Consider `CC(=O)O[C@@H]1C[C@@H](C(=O)N[C@@H](C)c2ccc(-c3scnc3C)cc2)N(C(=O)[C@@H](NC(=O)COCCCCCN(c2ccc(-n3cnnc3)cc2)c2cc(-c3c(C)noc3C)ccc2C)C(C)(C)C)C1` [Compound 94], for which the IC50 was 101 to 500 nM.

Turning to `Cc1cn(-c2ccc(N(CCCCCOCC(=O)N[C@H](C(=O)N3C[C@H](O)C[C@H]3C(=O)N[C@@H](C)c3ccc(-c4scnc4C)cc3)C(C)(C)C)c3cc(-c4c(C)noc4C)ccc3C)cc2)cn1` [Compound 95, (2S,4R)-1-((S)-2-(2-((5-((5-(3,5-dimethylisoxazol-4-yl)-2-methylphenyl)(4-(4-methyl-1H-imidazol-1-yl)phenyl)amino)pentyl)oxy)acetylamino)-3,3-dimethylbutyryl)-4-hydroxy-N—((S)-1-(4-(4-methylthiazol-5-yl)phenyl)ethyl)-pyrrolidinyl-2-formamide], the IC50 lay in the range of 101 to 500 nM.

For `Cc1ccc(-c2c(C)noc2C)cc1N(CCCCCOCC(=O)N[C@H](C(=O)N1C[C@H](O)C[C@H]1C(=O)N[C@@H](C)c1ccc(-c2scnc2C)cc1)C(C)(C)C)c1ccc(-n2ccnc2C)cc1` [Compound 97, (2S,4R)-1-((S)-2-(2-((5-((5-(3,5-dimethylisoxazol-4-yl)-2-methylphenyl)(4-(2-methyl-1H-imidazol-1-yl)phenyl)amino)pentyl)oxy)acetylamino)-3,3-dimethylbutyryl)-4-hydroxy-N—((S)-1-(4-(4-methylthiazol-5-yl)phenyl)ethyl)-pyrrolidinyl-2-formamide], the IC50 was in the range of 101 to 500 nM.

For `CC(=O)O[C@@H]1C[C@@H](C(=O)N[C@@H](C)c2ccc(-c3scnc3C)cc2)N(C(=O)[C@@H](NC(=O)COCCCCCN(c2ccc(-n3ccnc3C)cc2)c2cc(-c3c(C)noc3C)ccc2C)C(C)(C)C)C1` [Compound 98, (3R,5S)-1-((S)-2-(2-((5-((5-(3,5-dimethylisoxazol-4-yl)-2-methylphenyl)(4-(2-methyl-1H-imidazol-1-yl)phenyl)amino)pentyl)oxy)acetylamino)-3,3-dimethylbutyryl)-5-(((S)-1-(4-(4-methylthiazol-5-yl)phenyl)ethyl)aminoformyl)pyrrolidinyl-3-yl acetate], the IC50 lay within 101 to 500 nM.

As for `CC(=O)O[C@@H]1C[C@@H](C(=O)N[C@@H](C)c2ccc(-c3scnc3C)cc2)N(C(=O)[C@@H](NC(=O)CCN2CCC(CN(c3ccc(-n4ccnc4)c(Br)c3)c3cc(-c4c(C)noc4C)ccc3C)CC2)C(C)(C)C)C1` [Compound 99, (3R,5S)-1-((S)-2-(3-(4-(((3-Bromo-4-(1H-imidazol-1-yl)phenyl)(5-(3,5-dimethylisoxazol-4-yl)-2-methylphenyl)amino)methyl)piperidin-1-yl)propionamide)-3,3-dimethylbutyryl)-5-(((S)-1-(4-(4-methylthiazol-5-yl)phenyl)ethyl)carbamoyl)pyrrolidine-3-yl acetate], the IC50 was in the range of 501 to 2000 nM.

`Cc1ccc(-c2c(C)noc2C)cc1N(CC1CCN(CCC(=O)N[C@H](C(=O)N2C[C@H](O)C[C@H]2C(=O)N[C@@H](C)c2ccc(-c3scnc3C)cc2)C(C)(C)C)CC1)c1ccc(-n2ccnc2)c(Br)c1` [Compound 100, (2S,4R)-1-((S)-2-(3-(4-(((3-Bromo-4-(1H-imidazol-1-yl)phenyl)(5-(3,5-dimethylisoxazol-4-yl)-2-methylphenyl)amino)methyl)piperidin-1-yl)propionamide)-3,3-dimethylbutyryl)-4-hydroxy-N—((S)-1-(4-(4-methylthiazol-5-yl)phenyl)ethyl)pyrrolidine-2-formamide]: the IC50 lay in the range of 501 to 2000 nM.

The experiment is the same for the next values; noted with them: LNCaP/AR cells, 6 days culture, CCK-8; read-out: LNCap/AR IC50.
On to `CC(=O)O[C@@H]1C[C@@H](C(=O)N[C@@H](C)c2ccc(-c3scnc3C)cc2)N(C(=O)[C@@H](NC(=O)COCCCCCN(c2ccc(-n3cnc(C)c3)cc2)c2cc(-c3c(C)noc3C)ccc2C)C(C)(C)C)C1` [Compound 96, (3R,5S)-1-((S)-2-(2-((5-((5-(3,5-dimethylisoxazol-4-yl)-2-methylphenyl)(4-(4-methyl-1H-imidazol-1-yl)phenyl)amino)pentyl)oxy)acetylamino)-3,3-dimethylbutyryl)-5-(((S)-1-(4-(4-methylthiazol-5-yl)phenyl)ethyl)aminoformyl)pyrrolidinyl-3-yl acetate], for which the IC50 is < 100 nM.
